Results as given in ChEMBL document CHEMBL2040776, “Docking, synthesis and pharmacological activity of novel urea-derivatives designed as p38 MAPK inhibitors” (Eur J Med Chem, 2012).
The source made the active and inactive calls. The rule behind the calls is not given here.

Assays:
Rattus norvegicus [1] = assay: Antihypernociceptive activity in Wistar rat assessed as inhibition of capsaicin-induced thermal hypernociception by measuring paw withdrawal latency at 100 umol/kg, po administered 1 hr before capsaicin challenge measured after 10 mins; assay type: functional, organism-based
[2] = Antiinflammatory activity in BALB/c mouse peritoneal macrophages assessed as inhibition of LPS-induced TNFalpha production treated 1 hr before LPS challenge measured after 24 hrs by ELISA; assay type: functional, cell-based; conditions: Peritoneal macrophage cell
[3] = Cytotoxicity against BALB/c mouse peritoneal macrophages after 20 hrs by MTT assay; assay type: cell-based; conditions: Peritoneal macrophage cell
[4] = Antiinflammatory activity in BALB/c mouse peritoneal macrophages assessed as inhibition of LPS-induced TNFalpha production at 100 uM treated 1 hr before LPS challenge measured after 24 hrs by ELISA; assay type: functional; conditions: Peritoneal macrophage cell
Mus musculus = assay: Antihypernociceptive activity in po dosed BALB/c mouse methylated bovine serum albumin-induced arthritis model assessed as paw withdrawal latency administered 30 mins before mBSA challenge followed by second dose after 7 hrs by electronic Von Frey method; assay type: functional, organism-based
Rattus norvegicus [5] = assay: Antiinflammatory activity in Wistar rat assessed as inhibition of carrageenan-induced paw oedema at 100 umol/kg, po after 1 hr; assay type: functional, organism-based
Rattus norvegicus [6] = assay: Antiinflammatory activity in Wistar rat assessed as inhibition of carrageenan-induced paw oedema at 100 umol/kg, po after 3 hrs; assay type: functional, organism-based
MAP kinase p38 = MAP kinase p38 (Mus musculus, UniProt P47811+O08911+Q9WUI1+Q9Z1B7); assay: Inhibition of LPS-induced p38 MAPK activation in BALB/c mouse peritoneal macrophages

C[S+]([O-])c1ccc(-c2nc(-c3ccc(F)cc3)c(-c3ccncc3)[nH]2)cc1 (stereo not drawn) [SB-203580]
inhibition (Rattus norvegicus [1]): Active | IC50 [2]: 0.22 µM

CCOC(=O)c1cc2cc3c(cc2nc1NC(=O)Nc1ccc([N+](=O)[O-])cc1)OCO3
inhibition (Rattus norvegicus [1]): Active

CCOC(=O)c1cc2cc3c(cc2nc1NC(=O)Nc1ccc(Br)cc1)OCO3
inhibition (Rattus norvegicus [1]): Active

CCOC(=O)c1cc2cc3c(cc2nc1NC(=O)Nc1ccccc1)OCO3
IC50 [3]: 42.7 µM

CCOC(=O)c1cc2cc3c(cc2nc1NC(=O)NC1CCCCC1)OCO3
inhibition (Rattus norvegicus [1]): Active | IC50 [3]: 46.7 µM | inhibition at 100 µM [4]: 50% | IC50 [2]: 55 µM | Activity (Mus musculus): Dose-dependent effect | inhibition (Rattus norvegicus [5]): Active | inhibition (Rattus norvegicus [6]): Active | IC50 (MAP kinase p38): 14 µM
